Laboratory results reported in US5344841A, “Bis-(hydroxylakylamino)-anthraquinone inhibitors of protein kinase C” (Sphinx Pharmaceuticals Corporation, priority 1992, dated 1994).

Assays:
[1] = tested on: MCF-7/ADR adriamycin resistant line of MCF-7 cells; experiment: Human tumor growth inhibition, 3H-thymidine incorporation, MCF-7/ADR; assay type: cell-based; conditions: MCF-7/ADR vs MCF-7
Description: MCF-7 a human breast tumor cell line, and MCF-7/ADR an adriamycin resistant line of MCF-7 cells were obtained from the National Cancer Institute, Frederick, Md. NHEK a human keratinocyte cell line was obtained from Clonetic Corp., San Diego, Calif. 8226 a human myeloma cell line, 8226/MT a Mitoxantrone resistant line of 8226 cells, and 8226 ADR an adriamycin resistant line of 8226 cells were obtained from Dr. Bill Dalton, Arizona Cancer Center, Tuscon, Ariz.
Human tumor cells are trypsinized (0.05% trypsin, GIBCO), counted with a hemacytometer and seeded at a concentration of 10,000 cells/well in a 96 well microtiter plate. After allowing cells to attach to the surface overnight, the culture medium is aspirated and replaced with 100 μl of fresh medium. Test agents are diluted to determine dose response at 2× final concentration and added in quadruplicate at 100 μl/well to bring the total volume of each well to 200 μl. The microtiter plate is then incubated at 37° C. 5% CO2 overnight (18-24 hrs) before ^3 H-thymidine is added at a concentration of 0.5 μCi/well in 50 μl culture medium. The plate is incubated again for 4 hrs under the same conditions as above. Supernatant is then aspirated and 50 μl trypsin (0.05%, GIBCO) is added to each well. Cells are checked microscopically to determine detachment from surfaces, and plates are then harvested with a cell harvester (PHD, Cambridge Technology, Inc.) Filter papers corresponding to wells are placed in scintillation vials and counted to determine the amount of ^3 H-thymidine incorporated by the cells. Test agent response is compared to a positive control of cell wells with culture media only to determine the IC50. IC50 is the concentration of test compound required to inhibit fifty percent of the incorporation of ^3 H-thymidine into proliferating cells not exposed to test agent. Uptake of ^3 H-thymidine is a standard test for measuring the metabolism of cells. Cells which are actively proliferating take up ^3 H-thymidine, whereas cells that are not proliferating take up ^3 H-thymidine at much slower rates or not at all. Test agents that inhibit the uptake of ^3 H-thymidine thus slow the growth of cells.

P388 murine leukemia = experiment: P388 leukemia tumor assay in mice, survival time; assay type: in vivo, mouse
Description: P388 Leukemia Tumors. Mice were young adult, pathogen-free, BALA/c×DBA/2 F1 (i.e., CD2F1) females purchased from Charles River Laboratories. The tumor line was the P388 murine leukemia, ascites form, obtained from the National Cancer Institute (NCI) Tumor Repository (Frederick, Md.). The tumor was maintained in the serial passage in mice by periodic intraperitoneal (ip) implantation. For this experiment, 10^6 hemacytometer-counted P388 murine leukemia cells were implanted ip into mice on Day 0. The mice were randomized into one untreated control group of 20 and 15 test groups of six mice each. All drug treatment was delivered ip on the basis of the average body weight of each group. […] Body weights were recorded on Days 1, 5, 9, 11, and 18. Deaths were recorded daily. Dying mice were necropsied, and the presence or absence of ascites or splenomegaly was recorded. Drug effectiveness was assessed on the basis of the survival time. Results were expressed as a percentage of the control survival time (Survival Time=T/C×100%; T=test animals; C=control animals). The criterion for effectiveness was determined by: T/C×100≥125 percent.

[2] = tested on: 8226/ADR adriamycin resistant line of 8226 cells; experiment: Human tumor growth inhibition, 3H-thymidine incorporation, 8226/ADR; assay type: cell-based; conditions: 3H-thymidine uptake
[3] = tested on: 8226/MT Mitoxantrone resistant line of 8226 cells; experiment: Human tumor growth inhibition, 3H-thymidine incorporation, 8226/MT

## CCN(CC)CC(O)CNc1ccc(NCC2CO2)c2c1C(=O)c1ccccc1C2=O (stereo not shown) [Compound 1b-1, 1-(3-diethylamino-2-hydroxypropylamino)-4-(2,3-epoxypropylamino)-9, 10-anthracenedione]
[1]
  Resistance Ratio (IC50 MCF-7/ADR to IC50 MCF-7): 2.4
P388 murine leukemia; 16 mg/kg, Q4D × 3, ip, survival time
  % T/C p388 Leukemia: 140%
P388 murine leukemia; all dosages and schedules
  survival time of mice (in words): effectively increased the survival time
[2]
  IC50: 0.016 µM
[3]; 8226/MT vs 8226
  Resistance Ratio (8226/MT): 0.13
[3]; Homo sapiens, read-out: IC50 8226/MT
  IC50: 0.008 µM
[3]; text wording of ratio
  ratio of IC50 for 8226 cells to IC50 for 8226/MT cells: 0.13
